In the experiment the test system is phosphorylation of STAT3. As to the kind of experiment: Mia-Paca2-MSD-pSTAT3 cell-based assay. Particulars: Homo sapiens, MIA PaCa-2; Mia-paca2 pancreatic cancer cells, stimulated with conditioned medium; read-out: IC50, inhibits the phosphorylation of STAT3. The protocol: The Mia-Paca2-MSD (MesoScale Diagnostics)-pSTAT3 cell-based assay is used to examine the potency of compounds at blocking STAT3 phosphorylation in pancreatic cancer cells. Mia-paca2 cells (ATCC) are grown in DMEM complete medium supplemented with 10% FBS at 37° C. in incubator with 5% CO2. Cells are then collected, counted, plated at 4×10^4 cells/well in 96-well plates, and cultured for overnight at 37° C. with 5% CO2. Culture medium is removed from the cells and replaced with serum-free medium containing either vehicle alone (DMSO) or 2× final concentrations of compounds across a range from 0-20 μM at 1:3 dilution (10 dilutions). […] After stimulation, all medium is manually removed as above and cells are lysed in 50 microliters of ice cold 1×MSD lysis buffer (MesoScale Diagnostics, K150DID-2) containing 1×HALT protease and phosphatase inhibitor cocktail ((Thermo Scientific, 78441). The 96-well plates are sealed and then mixed for 2 minutes on an orbital shaker at room temperature, and then immediately frozen at −80° C. overnight. pSTAT3 is detected with the use of the MA6000 MSD Whole Cell Lysate Kit for Phospho-STAT-3 (Tyr 705) (MesoScale Diagnostics, #K150DID-2) as following, plates were blocked with blocking buffer at room temperature for 1-2 hours with shaking, and then washed 4× with washing buffer. […]

Broadly, the IC50 is the midpoint of a concentration-inhibition curve. Regarding `Cc1cc(Nc2ccc3ncn([C@@H]4CCc5ccc(F)cc54)c3n2)[nH]n1.Cl.Cl` [Example 1, 3-[(1R)-6-fluoro-2,3-dihydro-1H-inden-1-yl]-N-(3-methyl-1H-pyrazol-5-yl)-3H-imidazo[4,5-b]pyridin-5-amine dihydrochloride], the IC50 turned out to be 12 nM.

(Values after patent US9062050B2, “Inhibitor of JAK1 and JAK2” (Eli Lilly and Company, priority 2012, dated 2015).)
